| melting point [°C] | SMILES |
| --- | --- |
| 332 to 336 | CC1(C)C(=O)Nc2cc3[nH]c(-c4cccs4)nc3cc21 |
| 98 | CC1(C)CCOC1(O)C(Cc1ccc(Cl)cc1)n1cncn1 (stereo not given) |
| 75 to 76 | CCn1cc(CN(C(=O)C2CCCc3ccccc32)c2ccc(C(C)C)cc2)cn1 (stereo not given) |
| 207 to 209 | CCc1c(C)c(NC(=O)NC(C)(C)C)c(C)c2c1OCC2c1ccc(C(C)C)cc1 (stereo not given) |
| 81 | Cc1ccc(S(=O)(=O)Oc2ccc(C(C)(C)C)cc2C(C)(C)C)cc1 |
| 167 to 171 | CCCC1=C(C#N)C(c2ccccc2Cl)c2cn(C(=O)Nc3ccccc3)nc2N1 (stereo not given) |
| 107 to 109 | c1ccc(N2c3ccccc3Sc3ccccc32)nc1 |
| 198 to 199 | O=C(O)c1cc(Cl)nn1-c1ncccc1Cl |
| 58.3 | CCOc1ccccc1C=[N+]([O-])C(C)(C)C |
| 166 to 169 | OCC1C=CC(n2cnc3cc(Cl)c(Cl)cc32)C1 (stereo not given) |
| 154 to 155 | CCC(Cn1nc(-c2ccccc2)c(-c2ccccc2)c(C#N)c1=O)[N+](=O)[O-] (stereo not given) |
| 141 to 143 | O=C(NC(CO)CO)c1ccccc1-c1ccc(C(F)(F)F)cc1 |
| 148 to 150 | CCCCc1nc(Cl)c(C(=O)O)n1Cc1ccc2oc(-c3ccccc3C(=O)OCC)c(Br)c2c1 |
| 167 to 171 | CCC(=O)N1C(=S)NC(C)=C(C(=O)OC)C1c1cccc([N+](=O)[O-])c1 (stereo not given) |
| 100 | Cc1cc(-n2ccnc2)c2cccc(OCc3c(Cl)ccc(S(=O)(=O)N4CCC[C@H]4C(=O)NCC4CCN(C(=O)OC(C)(C)C)CC4)c3Cl)c2n1 |
| 54 to 55 | CCSc1ccc2c(c1)C(=O)Cc1ccccc1N2C |
| 144 | O=C(Nc1cccc(Oc2ccccc2)c1)c1ccn2c1CSC2c1cccnc1 (stereo not given) |
| 64 to 65 | CSC(=NCCSCc1nccs1)NC(=O)c1ccccc1 |
| 175 to 176 | Cc1ccc(S(=O)(=O)N(c2ccc(Cl)cc2C(=O)O)C(C)C)cc1 |
| 153 to 155 | O=C(O)c1ccccc1C(=O)Nc1ccc(C(=O)N2CCCC(O)c3cc(Cl)ccc32)cn1 (stereo not given) |
| 88 to 90 | COc1ccc(OCC(=O)c2ccccc2)c([N+](=O)[O-])c1 |
| 243 to 244 | CS(=O)c1ccc2nc3sc(C(=O)O)cn3c(=O)c2c1 (stereo not given) |
| 75 to 76 | CS(=O)(=O)OCCCc1cccc(OCc2coc(/C=C/c3ccccc3)n2)c1 |

| melting point [°C] | SMILES |
| --- | --- |
| 238 | Cc1nn2c(C(F)(F)F)cc(-c3ccc(Cl)cc3)nc2c1C#N |
| 89 to 91 | COC(=O)CCn1c(=O)n2cc(C)cc2c2ccccc21 |
| 134 | CCN(CC)c1ccc(C=C2Cc3ccccc3C2=O)c(C)c1 |
| 110 | N#Cc1c(OCCN2CCOCC2)cccc1Oc1ccc(-c2cn(C3CCOCC3)c3ncnc(N)c23)cc1 |
| 65 to 77 | CN1CCN(c2ccc(/C=C/C(=O)CC(=O)/C=C/c3ccc4cc[nH]c4c3)cc2)CC1 |
| 136 | CCc1cn2ccccc2c1S(=O)(=O)c1ccc(OCCCBr)cc1 |
| 227 to 231 | N#CNC1=NC(c2ccc(OC(F)(F)F)cc2)(c2cccc(-c3cncnc3)c2)C2=NCCCN12 (stereo not given) |
| 194 to 196 | Cc1ccc(CC(CS)C(=O)Nc2cccc(C(=O)O)c2C)cc1 (stereo not given) |
| 127 to 129 | CC(C)OC(=O)c1cc(-n2c(=O)cc(C(F)(F)F)[nH]c2=O)c(F)cc1Cl |
| 257 to 259 | O=c1[nH]c2c(c3nc(-c4ccccc4)nn13)CN(Cc1ccccc1)CC2 |
| 98 to 101 | CC(C)(C)C=Cc1nn(-c2ccc(F)cc2F)c2c1C1CCC2C1 (stereo not given) |
| 232 to 234 | Cc1ccc(CCC(=O)c2c(O)c3cccnc3n(-c3ccccc3)c2=O)cc1 |
| 98 to 99 | Clc1ccc(CSCc2ccc(Cl)c(Cl)c2)cc1Cl |
| 48 to 52 | CC(C)CN1C(=O)CC(C)(C)CC1=O |
| 85 to 87 | O=C1C=C(OCCCCCCI)c2ccccc2C1=O |
| 146 to 147 | Cc1nc(Cl)c(S(C)(=O)=O)c(Cl)n1 |
| 232 | CCOC(=O)c1cn(C)c2ccc(C(=O)c3c(C)cc4ccccn34)cc2c1=O |
| 247 to 251 | COC(=O)c1ccc(NC(=O)c2ccc(-c3ccccc3)cc2)cc1 |
| 146 | NCCN1CCC(Nc2nc3cncnc3n2Cc2ccc(F)cc2)CC1 |
| 219 to 220 | CC(=O)c1ccc(-c2nc(O)c(C)s2)cc1 |
| 258 to 260 | O=C(CC(=O)Oc1cc(O)cc(O)c1)Oc1cc(O)cc(O)c1 |
| 314 to 316 | O=C(Nc1ccc(-c2ncc(-c3ccc(NC(=O)C4CCCCCC4)cc3)[nH]2)cc1)c1ccc(F)cc1 |
| 162 to 164 | O=C(O)/C=C/C=C(c1ccccc1C(F)(F)F)c1ccccc1C(F)(F)F |

| melting point [°C] | SMILES |
| --- | --- |
| 102 to 104 | Cc1cc(CO)cc(C)c1O |
| 248 to 250 | COc1ccc(-n2c(CC(=O)O)c(C(=O)O)c3cc(Oc4ccc(C(F)(F)F)cc4)ccc32)cc1 |
| 223 to 225 | COc1cc(CNc2n[nH]c3ncnc(Nc4cccc(Cl)c4)c23)ccc1O |
| > 90 | Cc1cc(CN(Cc2ccc(F)cc2)c2cc(-c3ccc(C(F)(F)F)cc3)nn2C)cc(C)c1OC(C)(C)C(=O)O |
| 163 | ClCc1cn2cccc(OCc3ccccc3)c2n1 |
| 107 to 110 | O=C1c2cc([N+](=O)[O-])ccc2OC12CC2 |
| 262 to 263 | COC1c2ccccc2C(c2ccc([N+](=O)[O-])cc2)=NN(c2nc(=O)n(C)s2)C1(C)OC (stereo not given) |
| 105 to 107 | COC(=O)c1ccc(C(=S)Nc2ccccc2OC)cc1 |
| 95 to 96 | CCOC(=O)CCCc1oc(=O)[nH]c1-c1ccc(Cl)s1 |
| 114 to 116 | COCc1cnn2c(-c3cccc(C(F)(F)F)c3)ccnc12 |
| 119 to 125 | CC(O)=CC(N)=NC(C)(C)C |
| > 260 | COc1cccc(OC)c1-c1cc(C(=O)NC2(C(=O)O)C3CC4CC(C3)CC2C4)nn1-c1ccnc2cc(Cl)ccc12 (stereo not given) |
| 167 to 168 | COC(=O)CC(O)/C=C/c1c(-c2ccc(F)cc2)n(C(C)C)c(=O)c2ccccc12 (stereo not given) |
| 62 to 64 | FC(F)(F)c1cc(Br)c2cccc(Cl)c2n1 |
| 172 | COC(=O)C=C(Nc1ccc2[nH]c(=O)oc2c1)C(=O)OC |
| 118 to 125 | Cc1noc(NS(=O)(=O)c2ccccc2-c2ccc(-c3ncco3)cc2CN2CC(C)(C)CC2=O)c1C |
| 143 | Cc1cccc(-c2cccc(OC3SCC(O)C(O)C3O)c2)n1 (stereo not given) |
| 190 to 191 | CN1CC2C(C1)C2Nc1ncc2cc(-c3ccccc3Cl)c(=O)n(C3CC3)c2n1 (stereo not given) |
| 216 to 220 | COc1c2c(cc3ccccc13)C(=O)NC2=O |
| 100 | Cc1cccc(NC(=O)NCC(=O)N(CC(=O)N(C)c2ccc(F)cc2F)c2ccccc2)c1 |
| 156 to 158 | COc1cc2c(cc1OC)C(C=Cc1ccc(Br)cc1)=NN=C(C)C2 |
| 151 to 152 | N#Cc1ccc(Cl)cc1NC(=O)c1ccc(Br)cc1 |
| 121 to 123 | NC(=O)C1=CN(CCC(=O)NCCc2ccccc2)C=CC1 |

| melting point [°C] | SMILES |
| --- | --- |
| 85 to 86 | COC(=O)CN(C)C(=S)c1cccc2c(Br)cccc12 |
| 257 | Cn1c([N+](=O)[O-])cnc1-c1nc2ccccc2[nH]1 |
| 129 to 131 | CS(=O)(=O)c1ccc([C@@H](CC2CCC(=O)CC2)C(=O)O)cc1Cl |
| 169 to 171 | CCOP(=O)(CCN1CC(O)CNc2c1c(=O)c2=O)OCC (stereo not given) |
| 198 to 200 | COc1ccc(-c2cc3ccc(C)cc3s2)cc1 |
| 198 to 200 | CC(C)(C)OC(=O)N[C@H]1CCc2cc(-c3ccccc3)ccc2NC1=O |
| 135 to 136 | Cc1cc2c(/C=C/C(=O)OCc3ccccc3)cccc2[nH]1 |
| 118 | CCOC(=O)Cc1nn(Cc2nc3ccccc3n2C)c(=O)c2ccccc12 |
| 281 | O=C1Nc2ccc(Cl)cc2C1(c1ccccc1)c1ccccc1 |
| 120 to 121 | Clc1ccc(Cn2cc(CCN=c3sc4ccccc4s3)c3ccccc32)cc1 |
| 206 to 207 | COc1cccc(OCCF)c1-c1ccc(C[C@H](NC(=O)c2c(Cl)cccc2Cl)C(=O)O)cc1 |
| 82 to 83 | CCCCCCCCCCCCCCCCn1c2cc(Cl)ccc2c2ccc(Cl)cc21 |
| 264 to 267 | Cc1ccc(-c2coc3c(C)c(O)ccc3c2=O)cc1 |
| 220 to 222 | O=C(c1ccc(Cl)cc1)c1c(CN2CCN(c3ccccc3)CC2)csc1N1C(=O)c2ccccc2C1=O |
| 117 to 122 | CCc1c(C#N)oc(=O)n1S(=O)(=O)c1c(C)noc1C |
| 107 to 110 | COc1ccc(C(=O)Nc2ccccc2CCCC2CCCCN2C)cc1 (stereo not given) |
| 219 to 221 | CC(C)c1ccc2c(c1)C(=O)c1ccc(-c3nnn(C)n3)cc1S2(=O)=O |
| 150 to 152 | O=C(O)c1cccnc1N1CCc2ccccc2C1 |
| 218 to 219 | COc1ccc2cc(C=NNC(N)=O)ccc2c1 |
| 228 | O=C(NC(Cc1ccc(OCc2ccccc2)cc1)C(=O)O)c1cn2cc(-c3ccccc3Cl)ccc2n1 (stereo not given) |
| 109 to 111 | CC(CCOS(C)(=O)=S)(C(=O)O)C(=O)O (stereo not given) |

| SMILES | melting point [°C] |
| --- | --- |
| CCOP(=O)(OCC)Oc1cc(C(C)C)c(NC(=O)CN2CCN(CCSc3nc4ccccc4o3)CC2)c(C(C)C)c1 | 108 to 109 |
| CS(=O)(=O)O[C@H]1CCNC1=O | 122 to 124 |
| COc1cc(C=CC(=O)OC2CC3CC(OC(=O)Cc4cccc(O)c4)CC2N3C)cc(OC)c1OC (stereo not given) | 53 to 57 |
| O=C(O)C1CCNC2CCCCC21 (stereo not given) | > 300 |
| COc1ccc(Nc2nc(NN3CCCCCC3)nc(N(C)C3CCNCC3)n2)cc1Cl | 81 |
| CC(=O)C(C#N)c1ccc(F)c(F)c1 (stereo not given) | 147 to 152 |
| CCN1CCC2(c3cccc(O)c3)Cc3[nH]c(C(=O)N4CCCC4)c(C)c3CC2C1 (stereo not given) | 224 to 226 |
| Cc1cc2c(cc1O)C(C)(C)CC1(CC(C)(C)c3cc(OC(C)(C)C(=O)O)c(C)cc3O1)O2 (stereo not given) | 99 to 101 |
| NCC(O)c1ccc(C(F)(F)F)cc1 (stereo not given) | 138 to 140 |
| CC(=O)OC1CCC2C3CCC4=CC(=O)C=CC4(C)C3CCC12C (stereo not given) | 165 |
